{"source": "ChEMBL document CHEMBL1201862", "about": "“PubChem BioAssay data set” (2004)", "key": {"[1]": {"assay": "NIH-3T3 fibroblast cytotoxicity, dose response, cytotoxicity control, cell-based, fluorescence, Alamar Blue, secondary assay (AID 2327);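 also: NIH-3T3 mouse fibroblasts cultured with fluconazole at 8 µg/mL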", "assay_type": "functional"}, "[2]": {"target": "Multidrug resistance protein CDR2 (Candida albicans (strain SC5314 / ATCC MYA-2876) (Yeast), UniProt P78595)", "sequence (P78595 whole entry)": "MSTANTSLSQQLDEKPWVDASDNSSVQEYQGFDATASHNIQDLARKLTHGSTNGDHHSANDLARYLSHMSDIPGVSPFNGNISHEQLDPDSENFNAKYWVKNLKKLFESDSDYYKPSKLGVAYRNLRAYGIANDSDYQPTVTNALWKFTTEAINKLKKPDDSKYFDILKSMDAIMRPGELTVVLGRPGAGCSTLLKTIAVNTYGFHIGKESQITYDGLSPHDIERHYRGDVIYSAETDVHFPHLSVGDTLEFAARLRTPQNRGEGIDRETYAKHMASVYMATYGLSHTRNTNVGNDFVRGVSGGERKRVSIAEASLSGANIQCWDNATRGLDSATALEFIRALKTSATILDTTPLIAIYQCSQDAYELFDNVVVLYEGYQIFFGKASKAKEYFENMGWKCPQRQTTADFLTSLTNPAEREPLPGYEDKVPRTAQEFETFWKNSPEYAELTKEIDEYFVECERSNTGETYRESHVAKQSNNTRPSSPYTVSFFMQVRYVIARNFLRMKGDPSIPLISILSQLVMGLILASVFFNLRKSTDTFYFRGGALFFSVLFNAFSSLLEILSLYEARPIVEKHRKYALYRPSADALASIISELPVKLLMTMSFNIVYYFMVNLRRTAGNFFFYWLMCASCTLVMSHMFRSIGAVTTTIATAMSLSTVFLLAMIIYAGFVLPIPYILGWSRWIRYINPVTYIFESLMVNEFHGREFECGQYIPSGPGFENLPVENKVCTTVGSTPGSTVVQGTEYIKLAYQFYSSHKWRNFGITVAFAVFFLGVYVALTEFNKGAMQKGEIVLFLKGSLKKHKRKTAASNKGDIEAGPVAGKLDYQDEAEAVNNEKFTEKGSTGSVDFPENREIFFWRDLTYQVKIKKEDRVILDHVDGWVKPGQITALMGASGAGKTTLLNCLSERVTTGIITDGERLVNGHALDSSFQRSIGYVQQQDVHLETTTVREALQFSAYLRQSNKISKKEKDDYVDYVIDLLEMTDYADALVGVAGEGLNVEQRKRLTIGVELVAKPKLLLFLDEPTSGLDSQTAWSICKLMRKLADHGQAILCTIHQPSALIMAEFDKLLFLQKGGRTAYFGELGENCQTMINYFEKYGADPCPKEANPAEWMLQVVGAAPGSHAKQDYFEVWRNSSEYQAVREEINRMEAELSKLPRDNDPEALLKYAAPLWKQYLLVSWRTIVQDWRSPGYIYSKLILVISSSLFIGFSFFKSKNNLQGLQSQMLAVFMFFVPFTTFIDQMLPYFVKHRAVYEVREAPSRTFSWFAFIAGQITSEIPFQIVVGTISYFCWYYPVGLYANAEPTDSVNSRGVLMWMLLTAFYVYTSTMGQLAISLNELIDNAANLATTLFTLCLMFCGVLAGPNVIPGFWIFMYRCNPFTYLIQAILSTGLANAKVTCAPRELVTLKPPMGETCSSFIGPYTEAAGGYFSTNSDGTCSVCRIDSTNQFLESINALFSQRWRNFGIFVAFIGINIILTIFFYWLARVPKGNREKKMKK", "assay": "blockers of Nile Red efflux by Candida CDR2 – S. cerevisiae AD1-8u, singleplex, Cherry Pick2 set, dose response (AID 623994)", "assay_type": "functional", "details": "read-out: EC50_MICROM"}, "[3]": {"assay": "fluconazole-exposed Candida albicans growth modulators – fluorescence, retest, confirmation (AID 2467)", "assay_type": "functional, cell-based"}, "[4]": {"assay": "inhibitors of EBV LMP1 NF-kappaB signaling – cell-based, luciferase reporter, luminescence, dry powder, set 2, dose response (AID 624376)", "assay_type": "functional"}, "[5]": {"target": "Botulinum neurotoxin type F (Clostridium botulinum, UniProt P30996)", "sequence (P30996 1-436 limits assumed)": "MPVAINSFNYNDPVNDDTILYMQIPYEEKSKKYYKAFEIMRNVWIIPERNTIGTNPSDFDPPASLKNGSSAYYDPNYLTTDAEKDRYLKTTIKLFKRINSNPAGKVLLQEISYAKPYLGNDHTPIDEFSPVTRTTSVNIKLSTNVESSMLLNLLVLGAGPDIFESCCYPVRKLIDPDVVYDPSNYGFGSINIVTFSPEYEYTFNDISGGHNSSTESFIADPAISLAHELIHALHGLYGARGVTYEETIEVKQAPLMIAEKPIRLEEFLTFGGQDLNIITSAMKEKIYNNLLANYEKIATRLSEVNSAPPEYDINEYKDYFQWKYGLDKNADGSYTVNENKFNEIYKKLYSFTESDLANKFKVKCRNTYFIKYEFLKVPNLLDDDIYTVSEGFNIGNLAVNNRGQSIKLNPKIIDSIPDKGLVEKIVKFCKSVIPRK", "assay": "High-throughput multiplex microsphere dose response for inhibitors of toxin protease, specifically Botulinum neurotoxin light chain F protease, compounds from Cherry Pick 02.", "assay_type": "functional", "details": "read-out: EC50_MICROM"}, "[6]": {"target": "T1, Low molecular weight phosphotyrosine protein phosphatase (Homo sapiens, UniProt P24666)", "T1 sequence (P24666 whole entry)": "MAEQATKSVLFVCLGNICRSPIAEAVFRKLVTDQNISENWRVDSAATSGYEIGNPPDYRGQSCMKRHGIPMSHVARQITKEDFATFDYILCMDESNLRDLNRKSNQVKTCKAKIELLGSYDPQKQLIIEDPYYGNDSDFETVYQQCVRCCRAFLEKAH", "assay_type": "functional", "details": "read-out: IC50_Mean"}, "[7]": {"target": "T1, Low molecular weight phosphotyrosine protein phosphatase", "assay_type": "functional", "details": "read-out: IC50_Mean", "remark": "listed apart in the source"}, "[8]": {"target": "T2, Sentrin-specific protease 1 (Homo sapiens, UniProt Q9P0U3)", "T2 sequence (Q9P0U3 whole entry, the tested form may be a part)": "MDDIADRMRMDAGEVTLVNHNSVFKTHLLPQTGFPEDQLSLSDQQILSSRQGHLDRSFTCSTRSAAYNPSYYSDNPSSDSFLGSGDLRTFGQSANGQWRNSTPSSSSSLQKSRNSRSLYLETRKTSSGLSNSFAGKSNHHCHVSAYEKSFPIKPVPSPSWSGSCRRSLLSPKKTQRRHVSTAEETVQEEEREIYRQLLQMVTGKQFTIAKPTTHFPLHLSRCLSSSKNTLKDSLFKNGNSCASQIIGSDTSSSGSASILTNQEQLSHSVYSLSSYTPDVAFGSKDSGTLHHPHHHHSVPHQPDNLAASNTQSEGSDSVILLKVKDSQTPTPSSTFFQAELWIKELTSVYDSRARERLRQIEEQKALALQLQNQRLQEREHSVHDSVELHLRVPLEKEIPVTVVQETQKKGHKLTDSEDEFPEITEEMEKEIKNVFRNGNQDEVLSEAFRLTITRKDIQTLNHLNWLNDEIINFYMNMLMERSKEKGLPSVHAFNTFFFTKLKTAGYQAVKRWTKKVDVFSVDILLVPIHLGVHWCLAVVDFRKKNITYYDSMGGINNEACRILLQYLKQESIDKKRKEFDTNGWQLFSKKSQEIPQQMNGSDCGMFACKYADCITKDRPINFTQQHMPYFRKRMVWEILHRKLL", "assay": "SENP1 catalytic domain blockers, concentration series – biochemical, kinetic FRET, dose response (AID 651697)", "assay_type": "functional", "details": "read-out: IC50_Mean"}, "[9]": {"target": "T2, Sentrin-specific protease 1", "assay": "Dose response confirmation of small molecule inhibitors of the catalytic domain of the SUMO protease, SENP1 in a FRET assay.", "assay_type": "functional", "details": "read-out: IC50_Mean"}, "[10]": {"target": "Mu-type opioid receptor (Homo sapiens, UniProt P35372)", "sequence (P35372 whole entry)": "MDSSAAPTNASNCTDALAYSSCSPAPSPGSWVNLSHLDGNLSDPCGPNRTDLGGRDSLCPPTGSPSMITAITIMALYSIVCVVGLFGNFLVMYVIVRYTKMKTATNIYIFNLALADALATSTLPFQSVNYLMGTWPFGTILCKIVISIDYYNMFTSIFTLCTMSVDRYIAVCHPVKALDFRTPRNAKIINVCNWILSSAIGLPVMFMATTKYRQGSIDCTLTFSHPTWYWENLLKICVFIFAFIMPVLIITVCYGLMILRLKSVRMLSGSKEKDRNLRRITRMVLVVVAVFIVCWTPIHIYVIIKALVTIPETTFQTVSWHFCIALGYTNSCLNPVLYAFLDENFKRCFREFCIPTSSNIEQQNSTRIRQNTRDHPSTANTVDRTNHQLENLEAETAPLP", "assay_type": "functional, cell-based"}, "[11]": {"target": "FAD-linked sulfhydryl oxidase ALR (Homo sapiens, UniProt P55789)", "sequence (P55789 whole entry)": "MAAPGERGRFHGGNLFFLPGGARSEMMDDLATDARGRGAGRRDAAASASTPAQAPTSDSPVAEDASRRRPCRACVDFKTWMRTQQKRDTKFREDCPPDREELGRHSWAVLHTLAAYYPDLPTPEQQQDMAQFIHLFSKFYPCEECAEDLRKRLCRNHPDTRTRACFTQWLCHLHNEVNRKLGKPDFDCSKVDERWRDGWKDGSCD", "assay": "ALR-catalysed DTT oxidation blockers – biochemical, H2O2 detection, luminescence, cherry-pick, dose response (AID 493248)"}, "[12]": {"target": "5-hydroxytryptamine receptor 2A (Mus musculus, UniProt P35363)", "sequence (P35363 whole entry)": "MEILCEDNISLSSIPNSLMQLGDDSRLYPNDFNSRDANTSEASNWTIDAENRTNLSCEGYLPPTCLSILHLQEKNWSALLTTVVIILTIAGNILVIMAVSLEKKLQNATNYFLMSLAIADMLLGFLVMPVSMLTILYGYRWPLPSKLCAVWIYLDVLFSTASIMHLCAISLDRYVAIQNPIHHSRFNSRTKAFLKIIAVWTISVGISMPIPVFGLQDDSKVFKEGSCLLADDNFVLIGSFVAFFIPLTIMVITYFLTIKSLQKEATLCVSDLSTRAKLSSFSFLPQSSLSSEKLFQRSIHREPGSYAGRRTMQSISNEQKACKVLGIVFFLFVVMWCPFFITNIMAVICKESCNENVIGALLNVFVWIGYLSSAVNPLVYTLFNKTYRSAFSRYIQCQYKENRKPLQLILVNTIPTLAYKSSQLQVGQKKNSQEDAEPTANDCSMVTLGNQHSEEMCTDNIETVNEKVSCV", "assay_type": "functional, cell-based"}, "[13]": {"target": "T3, ATP-dependent translocase ABCB1 (Homo sapiens, UniProt P08183)", "T3 sequence (P08183 whole entry)": "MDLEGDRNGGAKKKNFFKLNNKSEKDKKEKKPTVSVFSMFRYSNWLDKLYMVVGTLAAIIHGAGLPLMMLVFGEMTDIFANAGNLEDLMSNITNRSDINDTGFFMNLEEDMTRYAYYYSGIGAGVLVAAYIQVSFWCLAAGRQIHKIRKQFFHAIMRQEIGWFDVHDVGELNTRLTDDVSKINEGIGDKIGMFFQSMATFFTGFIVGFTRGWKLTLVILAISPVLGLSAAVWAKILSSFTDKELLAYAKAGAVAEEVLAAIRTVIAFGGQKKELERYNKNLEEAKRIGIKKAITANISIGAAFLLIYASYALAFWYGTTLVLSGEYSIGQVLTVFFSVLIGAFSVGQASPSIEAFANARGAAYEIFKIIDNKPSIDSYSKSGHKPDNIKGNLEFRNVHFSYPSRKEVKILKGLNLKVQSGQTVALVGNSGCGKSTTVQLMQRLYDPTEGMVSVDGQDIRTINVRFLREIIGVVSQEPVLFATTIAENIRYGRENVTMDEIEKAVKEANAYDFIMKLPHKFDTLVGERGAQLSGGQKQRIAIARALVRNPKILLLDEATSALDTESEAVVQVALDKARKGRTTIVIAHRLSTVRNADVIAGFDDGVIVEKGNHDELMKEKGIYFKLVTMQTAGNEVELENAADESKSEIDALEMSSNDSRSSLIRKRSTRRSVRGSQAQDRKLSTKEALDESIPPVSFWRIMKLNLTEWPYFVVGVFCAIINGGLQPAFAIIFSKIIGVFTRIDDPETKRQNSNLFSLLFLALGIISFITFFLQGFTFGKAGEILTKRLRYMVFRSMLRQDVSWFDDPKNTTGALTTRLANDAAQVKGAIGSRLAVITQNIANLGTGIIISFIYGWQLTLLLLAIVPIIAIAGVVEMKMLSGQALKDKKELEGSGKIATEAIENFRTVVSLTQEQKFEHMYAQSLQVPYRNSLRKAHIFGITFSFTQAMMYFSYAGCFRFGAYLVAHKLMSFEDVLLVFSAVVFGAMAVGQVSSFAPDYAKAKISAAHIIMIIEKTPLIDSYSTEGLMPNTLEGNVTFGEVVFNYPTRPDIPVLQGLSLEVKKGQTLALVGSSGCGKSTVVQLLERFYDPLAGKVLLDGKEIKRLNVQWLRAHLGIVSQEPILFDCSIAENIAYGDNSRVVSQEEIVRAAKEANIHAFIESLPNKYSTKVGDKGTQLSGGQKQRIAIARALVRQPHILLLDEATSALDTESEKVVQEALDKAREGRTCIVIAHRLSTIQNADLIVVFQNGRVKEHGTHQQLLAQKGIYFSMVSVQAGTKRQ", "assay": "P-gp JC-1 efflux blockade concentration-response – Jurkat-DNR cells, flow cytometry, set 2, dose response (AID 504569);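 also: potency of pump inhibitors that raise cellular JC-1 green fluorescence up to the nicardipine level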", "assay_type": "functional", "details": "read-out: EC50_MICROM_"}, "[14]": {"target": "T3, ATP-dependent translocase ABCB1", "assay": "inhibition of BCRP-mediated JC-1 efflux – Ig-MXP3 cells, flow cytometry, set 2, dose response (AID 504566);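 also: flow cytometry median green fluorescence of retained JC-1 dye; potency of efflux pump inhibition measured as rising substrate retention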", "assay_type": "functional", "details": "read-out: EC50_MICROM_"}, "[15]": {"target": "T4, Mitochondrial peptide methionine sulfoxide reductase (Bos taurus, UniProt P54149)", "T4 sequence (P54149 whole entry)": "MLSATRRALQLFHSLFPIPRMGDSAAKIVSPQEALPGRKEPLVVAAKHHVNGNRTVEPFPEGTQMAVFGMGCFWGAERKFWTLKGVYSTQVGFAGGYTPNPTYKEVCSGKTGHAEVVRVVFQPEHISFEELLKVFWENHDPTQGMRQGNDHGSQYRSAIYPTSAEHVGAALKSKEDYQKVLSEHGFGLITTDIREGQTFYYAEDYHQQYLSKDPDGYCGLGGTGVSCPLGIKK", "assay_type": "functional"}}, "note": "Calls of active or inactive are those of the source."}
{"compound": "CCC(=O)N1CCN(c2ccc(Cl)cc2NC(=O)c2ccc3c(c2)OCCO3)CC1", "values": [{"measurement": "EC50", "setting": "[1]", "value": "117 µM (active)"}, {"measurement": "EC50", "setting": "[2]", "value": "32.1 µM (active)"}, {"measurement": "EC50", "setting": "[3]", "value": "3.35 µM (active)"}]}
{"compound": "C[C@@H]1CN([C@@H](C)CO)C(=O)Cc2cc(NC(=O)Cc3ccccc3)ccc2O[C@H]1CN(C)Cc1ccc(C(F)(F)F)cc1", "values": [{"measurement": "AbsAC35", "setting": "[4]", "value": 115.61, "unit": "µM"}]}
{"compound": "Cc1ccc(-c2nc3cc(C)c(Br)c(C)n3c2Cc2cccc(Cl)c2)cc1", "values": [{"measurement": "EC50", "setting": "[5]", "value": "> 20 µM (inactive)"}]}
{"compound": "O=C(CCCOc1ccc(Cl)cc1Cl)NNC(=O)c1ccc(NC(=O)c2ccccc2)cc1", "values": [{"measurement": "IC50", "setting": "[6]", "value": "8.44 µM (active)"}, {"measurement": "IC50", "setting": "[7]", "value": "11.2 µM (active)"}]}
{"compound": "O=C(O)c1ccc(N/N=C/c2cccc3nccnc23)cc1", "values": [{"measurement": "IC50", "setting": "[8]", "value": "15.1 µM (active)"}, {"measurement": "IC50", "setting": "[9]", "value": "8.97 µM (active)"}]}
{"compound": "CNCCc1ccc(O)c(O)c1", "values": [{"measurement": "EC50", "setting": "[10]", "value": "92.3 µM (inactive)"}, {"measurement": "AC50", "setting": "[11]", "value": "4.11 µM (active)"}, {"measurement": "EC50", "setting": "[12]", "value": "0.0874 µM (active)"}]}
{"compound": "O=C(c1ccco1)N1CCN(c2cc(-c3ccccc3)nc3cc(-c4cccc(F)c4)nn23)CC1", "values": [{"measurement": "EC50", "setting": "[13]", "value": "3.4 µM (active)"}, {"measurement": "EC50", "setting": "[14]", "value": "1.05 µM (active)"}]}
{"compound": "C/C(CCC(C)C)=N\\Nc1ccc(S(N)(=O)=O)cc1[N+](=O)[O-]", "values": [{"measurement": "IC50", "setting": "[15]", "value": "155 µM (inactive)"}]}
